# ChEMBL document CHEMBL1201862, “PubChem BioAssay data set” (2004)
# Activity calls are given as the source filed them.
# What was measured:
# [1] = viability inhibitors of stage V gametocytes – luminescence, dose response (AID 1117278); format: functional, cell-based;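 also: gametocytes exposed to compound for 24 hours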
# [2] = viability loss in human Jurkat cells – cell-based, luminescence, cytotoxicity control for P. falciparum gametocyte viability project, dose response (AID 1117277); format: functional;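 also: potency reflects loss of cellular ATP meaning fewer viable cells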
# [3] = A cytotoxicity screen of small molecule inhibitors of the PhoP region in Salmonella typhi identified in the primary screen. [Related pubchem assays: 1850, 1864, 1985 ]; format: functional
# Nonstructural protein 1 = Nonstructural protein 1 (Influenza A virus, UniProt Q194T2); format: functional, Influenza A virus (A/California/07/2009(H1N1))
# [4] = target: T1, Apoptotic protease-activating factor 1 (Homo sapiens, UniProt O14727); format: functional
# T1 sequence (O14727 whole entry): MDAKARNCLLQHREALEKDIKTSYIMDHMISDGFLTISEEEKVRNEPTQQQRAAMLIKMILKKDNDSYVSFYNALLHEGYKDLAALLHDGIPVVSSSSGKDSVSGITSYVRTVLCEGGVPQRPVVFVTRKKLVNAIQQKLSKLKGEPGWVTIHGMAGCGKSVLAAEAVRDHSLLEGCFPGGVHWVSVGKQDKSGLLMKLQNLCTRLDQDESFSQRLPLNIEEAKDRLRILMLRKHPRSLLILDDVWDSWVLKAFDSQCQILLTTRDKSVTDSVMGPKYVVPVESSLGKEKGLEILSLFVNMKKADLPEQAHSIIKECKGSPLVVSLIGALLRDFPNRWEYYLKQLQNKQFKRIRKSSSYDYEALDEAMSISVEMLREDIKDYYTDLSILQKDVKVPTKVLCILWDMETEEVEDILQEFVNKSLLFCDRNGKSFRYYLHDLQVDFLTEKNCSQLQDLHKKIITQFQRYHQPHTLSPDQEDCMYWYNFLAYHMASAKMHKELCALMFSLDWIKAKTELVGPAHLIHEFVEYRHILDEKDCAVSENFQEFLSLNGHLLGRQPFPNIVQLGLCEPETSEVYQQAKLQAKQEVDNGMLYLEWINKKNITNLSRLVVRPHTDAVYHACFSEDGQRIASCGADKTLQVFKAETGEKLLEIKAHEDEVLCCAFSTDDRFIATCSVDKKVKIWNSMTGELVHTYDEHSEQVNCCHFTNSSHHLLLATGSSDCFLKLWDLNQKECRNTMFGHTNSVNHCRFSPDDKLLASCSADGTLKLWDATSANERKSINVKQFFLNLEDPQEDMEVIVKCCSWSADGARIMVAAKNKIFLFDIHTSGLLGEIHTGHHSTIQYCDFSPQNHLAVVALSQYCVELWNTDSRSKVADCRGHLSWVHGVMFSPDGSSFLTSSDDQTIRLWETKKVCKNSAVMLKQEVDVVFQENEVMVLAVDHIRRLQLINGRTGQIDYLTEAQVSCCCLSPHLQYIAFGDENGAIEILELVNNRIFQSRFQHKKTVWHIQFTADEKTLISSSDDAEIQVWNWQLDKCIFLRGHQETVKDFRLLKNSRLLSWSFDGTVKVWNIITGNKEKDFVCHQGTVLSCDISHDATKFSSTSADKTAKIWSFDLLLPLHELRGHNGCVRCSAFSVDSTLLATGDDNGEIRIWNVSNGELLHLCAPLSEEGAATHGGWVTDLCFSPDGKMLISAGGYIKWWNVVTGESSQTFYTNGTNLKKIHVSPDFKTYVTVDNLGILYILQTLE
# [5] = target: T2, Polyadenylate-binding protein 1 (Homo sapiens, UniProt P11940); experiment: MLLE binding blockers, Cy5 peptide tracer – biochemical, fluorescence polarization, Cy5-PAM2 peptide, secondary, miRNA deadenylation inhibitor project, dose response (AID 602260); format: functional; conditions: read-out: IC50_Mean
# [6] = target: T2, Polyadenylate-binding protein 1; experiment: MLLE domain peptide-binding blockers, IC50 – biochemical, fluorescence polarization, FITC-PAM2 peptide, dose response (AID 602259); format: functional; conditions: read-out: IC50_Mean
# Caspase-6 = target: T3, Caspase-6 (Homo sapiens, UniProt P55212); experiment: inhibition of CASP6 peptide cleavage – biochemical, VEID-R110 fluorescence, cherry-pick, dose response (AID 720632)
# T3 sequence (P55212 whole entry): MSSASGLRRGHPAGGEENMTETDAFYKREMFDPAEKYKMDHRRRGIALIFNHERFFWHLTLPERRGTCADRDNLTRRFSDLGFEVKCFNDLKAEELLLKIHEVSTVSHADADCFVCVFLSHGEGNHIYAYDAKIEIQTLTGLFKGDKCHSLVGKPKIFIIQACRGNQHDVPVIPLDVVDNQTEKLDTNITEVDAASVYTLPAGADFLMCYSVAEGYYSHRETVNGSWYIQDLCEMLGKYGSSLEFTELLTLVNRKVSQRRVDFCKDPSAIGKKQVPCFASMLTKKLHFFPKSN
# Caspase-9 = target: T4, Caspase-9 (Homo sapiens, UniProt P55211); experiment: inhibitors of purified CASP9 protease – biochemical, fluorescence, plate reader, cherry-picked samples, selectivity assay for caspase-6 inhibitor project, dose response (AID 743293)
# T4 sequence (P55211 whole entry): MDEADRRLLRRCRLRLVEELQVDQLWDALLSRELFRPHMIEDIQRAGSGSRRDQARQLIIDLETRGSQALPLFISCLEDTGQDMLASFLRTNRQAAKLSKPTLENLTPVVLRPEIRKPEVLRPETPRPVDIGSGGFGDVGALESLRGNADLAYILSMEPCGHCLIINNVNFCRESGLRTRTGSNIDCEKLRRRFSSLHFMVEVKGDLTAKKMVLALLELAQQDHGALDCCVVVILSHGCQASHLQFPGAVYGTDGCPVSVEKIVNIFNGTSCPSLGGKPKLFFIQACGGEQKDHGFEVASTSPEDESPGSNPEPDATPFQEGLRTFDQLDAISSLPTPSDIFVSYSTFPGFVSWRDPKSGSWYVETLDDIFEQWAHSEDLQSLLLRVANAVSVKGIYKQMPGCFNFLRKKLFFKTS
# Caspase-8 = Caspase-8 (Homo sapiens, UniProt Q14790); experiment: inhibitors of purified CASP8 protease – biochemical, Z-IETD-R110 fluorescence, cherry-picked samples, selectivity assay for caspase-6 inhibitor project, dose response (AID 743294)
# Estrogen receptor beta = Estrogen receptor beta (Homo sapiens, UniProt Q92731);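 also: recombinant ER-beta bound to coactivator SRC1 peptide in presence of estradiol agonist; inhibitors block coactivator peptide binding and lower the FRET signal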
# [7] = target: T5, RNA-binding protein pos-1 (Caenorhabditis elegans, UniProt G5EF15); experiment: disruptors of C. elegans POS-1 RNA interaction – biochemical, fluorescence polarization, dose response (AID 1964);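 also: purified POS-1 fused to maltose binding protein made in E. coli; potency of compounds blocking POS-1 binding to fluorescent RNA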
# T5 sequence (G5EF15 whole entry): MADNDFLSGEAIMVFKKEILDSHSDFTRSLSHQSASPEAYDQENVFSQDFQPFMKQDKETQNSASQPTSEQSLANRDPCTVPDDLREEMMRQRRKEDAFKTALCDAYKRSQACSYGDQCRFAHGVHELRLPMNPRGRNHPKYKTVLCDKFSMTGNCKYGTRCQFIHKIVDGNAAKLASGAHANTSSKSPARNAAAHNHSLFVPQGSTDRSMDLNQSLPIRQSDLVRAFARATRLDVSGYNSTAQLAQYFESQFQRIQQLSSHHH
# [8] = target: T6, Zinc finger protein mex-5 (Caenorhabditis elegans, UniProt Q9XUB2); experiment: potency of MEX-5 RNA-binding blockers – biochemical, C. elegans, fluorescence polarization, dose response (AID 1960)
# T6 sequence (Q9XUB2 whole entry): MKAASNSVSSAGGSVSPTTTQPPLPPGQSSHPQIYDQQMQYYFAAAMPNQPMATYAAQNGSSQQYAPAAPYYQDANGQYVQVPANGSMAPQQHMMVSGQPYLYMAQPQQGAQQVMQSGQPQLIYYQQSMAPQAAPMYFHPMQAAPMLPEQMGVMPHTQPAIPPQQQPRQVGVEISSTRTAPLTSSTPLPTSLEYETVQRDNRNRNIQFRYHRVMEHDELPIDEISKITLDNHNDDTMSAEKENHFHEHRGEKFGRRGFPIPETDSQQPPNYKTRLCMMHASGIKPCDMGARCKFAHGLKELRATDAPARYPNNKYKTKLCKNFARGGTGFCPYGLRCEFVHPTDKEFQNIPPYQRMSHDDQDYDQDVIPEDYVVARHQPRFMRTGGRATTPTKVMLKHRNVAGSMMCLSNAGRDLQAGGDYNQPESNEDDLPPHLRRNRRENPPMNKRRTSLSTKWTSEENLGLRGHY
# [9] = target: T7, Bifunctional protein GlmU (Mycobacterium tuberculosis, UniProt P9WMN3); experiment: Inhibitors of Mycobacterial Glucosamine-1-phosphate acetyl transferase (GlmU). Secondary screen.; set-up: species or system Mycobacterium tuberculosis H37Rv
# T7 sequence (P9WMN3 whole entry): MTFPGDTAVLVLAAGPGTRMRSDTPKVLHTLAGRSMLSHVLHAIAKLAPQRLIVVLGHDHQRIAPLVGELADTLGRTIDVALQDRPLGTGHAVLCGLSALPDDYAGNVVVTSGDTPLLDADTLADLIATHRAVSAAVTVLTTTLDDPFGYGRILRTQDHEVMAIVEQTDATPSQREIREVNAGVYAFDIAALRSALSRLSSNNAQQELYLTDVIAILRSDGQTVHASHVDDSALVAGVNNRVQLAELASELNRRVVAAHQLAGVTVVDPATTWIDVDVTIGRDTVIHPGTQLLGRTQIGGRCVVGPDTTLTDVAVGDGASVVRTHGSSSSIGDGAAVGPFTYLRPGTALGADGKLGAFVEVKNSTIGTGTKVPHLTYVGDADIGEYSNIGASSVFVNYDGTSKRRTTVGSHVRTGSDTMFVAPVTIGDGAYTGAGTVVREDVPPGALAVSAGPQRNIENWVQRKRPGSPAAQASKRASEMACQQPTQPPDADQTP
# [10] = IC50 of insulin release inhibition, rat insulinoma INS-1E line, 5 mM glucose, cell-based (AID 1117331); format: functional
# Cytochrome P450 2D6 = Cytochrome P450 2D6 (Homo sapiens, UniProt P10635);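 also: CYP2D6 member of a cytochrome P450 panel assay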
# Cytochrome P450 1A2 = target: T8, Cytochrome P450 1A2 (Homo sapiens, UniProt P05177);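 also: PubChem cytochrome P450 panel assay, CYP1A2 panel member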
# T8 sequence (P05177 whole entry): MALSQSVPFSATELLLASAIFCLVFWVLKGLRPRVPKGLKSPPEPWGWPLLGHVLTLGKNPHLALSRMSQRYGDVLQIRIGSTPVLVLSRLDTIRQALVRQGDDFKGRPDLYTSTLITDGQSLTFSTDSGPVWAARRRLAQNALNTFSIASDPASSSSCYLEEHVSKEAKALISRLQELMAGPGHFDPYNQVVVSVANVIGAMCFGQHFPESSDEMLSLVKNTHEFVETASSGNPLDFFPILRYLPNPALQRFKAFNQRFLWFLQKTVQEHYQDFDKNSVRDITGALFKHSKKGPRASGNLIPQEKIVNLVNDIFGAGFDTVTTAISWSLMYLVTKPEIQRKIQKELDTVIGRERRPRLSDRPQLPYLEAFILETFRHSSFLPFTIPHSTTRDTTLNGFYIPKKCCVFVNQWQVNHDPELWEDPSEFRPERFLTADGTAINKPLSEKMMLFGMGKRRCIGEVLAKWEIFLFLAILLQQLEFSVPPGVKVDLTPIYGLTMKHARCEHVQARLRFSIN
# [11] = target: T9, Microphthalmia-associated transcription factor (Homo sapiens, UniProt O75030); experiment: reducers of TRPM1 reporter luminescence, concentration series – cell-based, SK-MEL-5, cherry-picked, set 3, MITF inhibitor project, dose response (AID 493073); format: functional;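 also: SK-MEL-5 melanoma cells with luciferase driven by the MITF target TRPM1 promoter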
# T9 sequence (O75030 whole entry): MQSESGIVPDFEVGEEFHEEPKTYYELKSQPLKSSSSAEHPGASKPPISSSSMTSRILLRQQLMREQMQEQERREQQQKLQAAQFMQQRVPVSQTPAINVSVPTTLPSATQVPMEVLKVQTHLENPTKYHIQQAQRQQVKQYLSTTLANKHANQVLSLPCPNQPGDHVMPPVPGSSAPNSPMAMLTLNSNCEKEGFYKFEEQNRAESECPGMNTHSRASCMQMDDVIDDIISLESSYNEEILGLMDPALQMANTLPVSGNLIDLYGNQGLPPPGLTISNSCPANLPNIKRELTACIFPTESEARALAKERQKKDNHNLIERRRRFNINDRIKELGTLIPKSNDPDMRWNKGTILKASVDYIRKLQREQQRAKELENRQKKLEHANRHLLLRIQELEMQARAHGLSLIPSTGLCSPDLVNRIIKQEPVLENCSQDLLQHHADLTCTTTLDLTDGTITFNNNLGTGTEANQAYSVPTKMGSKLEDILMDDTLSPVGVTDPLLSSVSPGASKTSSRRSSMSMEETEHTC
# T2 sequence (P11940 whole entry, the tested form may be a part): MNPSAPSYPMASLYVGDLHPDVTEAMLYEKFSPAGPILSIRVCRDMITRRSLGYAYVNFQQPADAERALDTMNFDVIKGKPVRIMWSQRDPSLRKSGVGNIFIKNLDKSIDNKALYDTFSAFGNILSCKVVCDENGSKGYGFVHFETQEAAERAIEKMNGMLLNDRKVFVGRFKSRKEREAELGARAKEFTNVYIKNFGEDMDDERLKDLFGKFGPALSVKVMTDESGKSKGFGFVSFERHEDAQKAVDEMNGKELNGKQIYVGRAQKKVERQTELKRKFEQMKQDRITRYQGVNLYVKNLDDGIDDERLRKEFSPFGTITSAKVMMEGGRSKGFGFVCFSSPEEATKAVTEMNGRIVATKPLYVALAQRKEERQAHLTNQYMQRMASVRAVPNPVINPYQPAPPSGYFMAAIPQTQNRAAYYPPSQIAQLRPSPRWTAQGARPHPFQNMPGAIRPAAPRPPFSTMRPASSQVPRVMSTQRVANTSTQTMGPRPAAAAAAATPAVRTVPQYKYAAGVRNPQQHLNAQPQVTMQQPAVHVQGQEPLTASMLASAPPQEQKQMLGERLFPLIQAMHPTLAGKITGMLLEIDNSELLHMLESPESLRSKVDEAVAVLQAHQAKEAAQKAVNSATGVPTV
# Nonstructural protein 1, sequence (Q194T2 whole entry): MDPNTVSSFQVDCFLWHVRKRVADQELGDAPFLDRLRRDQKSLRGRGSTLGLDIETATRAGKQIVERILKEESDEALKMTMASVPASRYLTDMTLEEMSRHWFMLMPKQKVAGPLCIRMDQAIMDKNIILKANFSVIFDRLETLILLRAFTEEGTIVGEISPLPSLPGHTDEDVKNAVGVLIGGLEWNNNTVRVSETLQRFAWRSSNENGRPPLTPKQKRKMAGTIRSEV
# Estrogen receptor beta, sequence (Q92731 whole entry, the tested form may be a part): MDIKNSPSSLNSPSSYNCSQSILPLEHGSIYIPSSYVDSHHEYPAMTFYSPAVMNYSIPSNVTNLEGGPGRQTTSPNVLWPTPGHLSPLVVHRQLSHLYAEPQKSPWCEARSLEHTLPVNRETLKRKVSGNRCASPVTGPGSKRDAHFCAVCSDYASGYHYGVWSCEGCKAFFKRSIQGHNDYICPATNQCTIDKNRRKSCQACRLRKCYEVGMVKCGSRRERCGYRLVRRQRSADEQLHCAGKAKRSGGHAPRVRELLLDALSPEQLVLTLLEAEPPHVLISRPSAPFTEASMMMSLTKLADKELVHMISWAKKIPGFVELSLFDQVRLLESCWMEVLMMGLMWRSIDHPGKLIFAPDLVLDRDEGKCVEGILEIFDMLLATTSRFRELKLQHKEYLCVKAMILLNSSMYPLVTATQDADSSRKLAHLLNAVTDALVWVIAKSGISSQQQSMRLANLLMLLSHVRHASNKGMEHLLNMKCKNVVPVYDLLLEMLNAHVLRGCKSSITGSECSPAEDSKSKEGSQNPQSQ
# Cytochrome P450 2D6, sequence (P10635 whole entry): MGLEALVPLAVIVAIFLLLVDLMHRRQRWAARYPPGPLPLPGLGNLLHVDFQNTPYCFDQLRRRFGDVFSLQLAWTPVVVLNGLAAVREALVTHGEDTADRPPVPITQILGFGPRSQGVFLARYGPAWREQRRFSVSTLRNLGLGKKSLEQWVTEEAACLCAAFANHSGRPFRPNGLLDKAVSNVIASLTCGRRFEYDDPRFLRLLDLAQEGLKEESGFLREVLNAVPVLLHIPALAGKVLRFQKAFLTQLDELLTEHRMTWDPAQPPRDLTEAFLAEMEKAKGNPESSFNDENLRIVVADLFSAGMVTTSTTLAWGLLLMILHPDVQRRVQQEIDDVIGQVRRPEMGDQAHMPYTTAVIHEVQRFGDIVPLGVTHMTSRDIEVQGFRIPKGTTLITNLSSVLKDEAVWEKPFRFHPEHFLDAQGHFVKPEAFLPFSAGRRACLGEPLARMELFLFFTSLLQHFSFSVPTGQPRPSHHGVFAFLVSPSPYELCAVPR
# Caspase-8, sequence (Q14790 217-374 limits assumed): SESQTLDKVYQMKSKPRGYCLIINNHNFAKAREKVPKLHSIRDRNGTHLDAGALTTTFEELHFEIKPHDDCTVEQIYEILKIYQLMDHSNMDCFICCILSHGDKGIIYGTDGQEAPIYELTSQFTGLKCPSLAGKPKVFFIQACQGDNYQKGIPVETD
# Caspase-8, sequence (Q14790 385-479 limits assumed): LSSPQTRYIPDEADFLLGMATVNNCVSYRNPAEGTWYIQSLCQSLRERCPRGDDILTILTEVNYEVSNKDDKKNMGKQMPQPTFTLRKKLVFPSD
compound,measurement,setting,value
CC1CCN(C(=O)CSc2ccc(-c3ccc(F)cc3)nn2)CC1,IC50,[1],> 109 µM (inactive)
same,IC50,[2],> 83.3 µM (inactive)
CCOC(=O)CSc1nnc2c(n1)C1(C)CCC2C1(C)C (centres undefined),EC50,[3],> 50 µM (active)
same,IC50,[1],> 109 µM (inactive)
same,IC50,[2],> 83.2 µM (inactive)
Oc1cc(NCCc2cccnc2)cc2cccnc12,IC50,Nonstructural protein 1,6.64 µM (active)
same,IC50,[4],18.4 µM (active)
same,IC50,[5],> 66 µM (inactive)
same,IC50,[6],42.3 µM (inactive)
same,AC50,Caspase-6,2.89 µM (active)
same,AC50,Caspase-9,> 70 µM (inactive)
same,AC50,Caspase-8,30.1 µM (active)
COC(=O)C(O)(c1ccc(N(C)C(=O)OC(C)C)cc1)C(F)(F)F (centres undefined),IC50,Estrogen receptor beta,> 50 µM (not active)
COc1ccccc1N1C(=O)C(Cl)=C(Nc2ccccc2O)C1=O,EC50,[7],34.7 µM (active)
same,EC50,[8],8.19 µM (inconclusive)
same,IC50,[9],90.9 µM (active)
Cn1c(SCC(=O)N2CCCCC2)nnc1-c1ccc(S(=O)(=O)N2CCOCC2)cc1,IC50,[1],> 109 µM (inactive)
same,IC50,[2],> 83.3 µM (inactive)
CCN(CC)CCOc1ccc(Cc2ccccc2)cc1,IC50,[10],> 33.3 µM (inactive)
same,AC50,Cytochrome P450 2D6,25.1 µM (inconclusive)
same,AC50,Cytochrome P450 1A2,12.6 µM (inconclusive)
Cc1nn(-c2ccccc2Cl)c(Cl)c1/C=N/Nc1cccc(C(=O)O)c1,IC50,[9],137 µM (active)
same,AC50,[11],5.5 µM (active)
CCC1=C(C)CN(C(=O)NCCc2ccc(S(=O)(=O)NC(=O)N[C@H]3CC[C@H](C)CC3)cc2)C1=O [GLIMEPIRIDE],IC50,[10],0.00406 µM (active)
